Laboratory results from patent publication US20250319108A1, “COMBINATIONS” (AN2 Therapeutics, Inc., priority 2021, published 2025).
In brackets after ≈: the same amount, converted by molar mass. Counter-ions that a name gives are not always drawn. Like-named read-outs stand apart in the source and are kept apart here.

Assays:
M. abscessus ATCC 19977 = assay: MIC, broth microdilution; assay type: cell-based; details: for MIC: Mycobacteroides abscessus, ATCC19977, read-out: In Vitro Activity (MIC)
Procedure: (§1) Minimum inhibitory concentration (MIC) determinations: MIC values for the putative EBO resistant mutants were determined by broth microdilution method (BMD) in cation-adjusted Mueller Hinton broth according to Clinical and Laboratory Standards Institute document M24-A3 (Clinical and Laboratory Standards Institute. Susceptibility Testing of Mycobacteria, Nocardia spp., and Other Aerobic Actinomycetes. 3rd ed. CLSI standard M24. Clinical and Laboratory Standards Institute, Wayne, PA: 2018). Agar MIC values were determined as essentially described by CLSI M24-A3 using 7H10 Middlebrook agar and 5% OADC.

[1] = test system: M. peregrinum ATCC 700686; assay: MIC, broth microdilution; assay type: cell-based; details: for MIC: Mycolicibacterium peregrinum, ATCC700686, read-out: In Vitro Activity (MIC)
Procedure: as §1

M. avium 2285R = assay: MIC, broth microdilution; assay type: cell-based; details: for MIC: Mycobacterium avium, read-out: In Vitro Activity (MIC)
Procedure: as §1

[2] = test system: M. intracellulare 20-S-13; assay: MIC, broth microdilution; assay type: cell-based; details: for MIC: Mycobacterium intracellulare
Procedure: as §1

M. chimaera 20-S-05 = assay: MIC, broth microdilution; assay type: cell-based; details: for MIC: 20S05, read-out: In Vitro Activity (MIC)
Procedure: as §1

M. avium ATCC 700858 = assay: MIC, broth microdilution; assay type: cell-based; details: for MIC: Mycobacterium avium, ATCC700858, read-out: In Vitro Activity (MIC)
Procedure: as §1

[3] = test system: M. intracellulare DNA000111; assay: MIC, broth microdilution; assay type: cell-based; details: for MIC: Mycobacterium intracellulare, read-out: In Vitro Activity (MIC)
Procedure: as §1

M. avium ATCC 700898 [4] = assay: Agar MIC; assay type: cell-based; details: 7H10 Middlebrook agar, 5% OADC; for MIC: Mycobacterium avium, ATCC700898
Procedure: as §1
(§2) Resistant colonies were confirmed by replica plating on agar plates containing antibiotic at the same concentration used to select resistance. Control plates containing no drug were prepared for inoculum determination. The RF was calculated by dividing the total CFU/mL of resistant colonies by the total CFU/mL of the inoculum.

[5] = test system: M. avium ATCC 700898 isolate 64-4A; assay: MIC, EBO selected isolate; assay type: cell-based
Procedure: as §1, §2

[6] = test system: M. avium ATCC 700898 isolate 16-3A; assay: MIC, EBO selected isolate; assay type: cell-based
Procedure: as §1, §2

[7] = test system: M. avium ATCC 700898 isolate 64-3A; assay: MIC, EBO selected isolate; assay type: cell-based
Procedure: as §1, §2

[8] = test system: M. avium ATCC 700898 isolate 32-8A; assay: MIC, EBO selected isolate; assay type: cell-based
Procedure: as §1, §2

[9] = test system: M. avium ATCC 700898 isolate 16-5A; assay: MIC, EBO selected isolate; assay type: cell-based
Procedure: as §1, §2

[10] = test system: M. avium ATCC 700898 isolate 32-5A; assay: MIC, EBO selected isolate; assay type: cell-based
Procedure: as §1, §2

M. avium ATCC 700898 WT = assay: MIC, parent strain; assay type: cell-based
Procedure: as §1, §2

[11] = test system: EBO resistant mutants of M. avium ATCC 700898; assay type: cell-based
Procedure: as §1, §2

M. avium ATCC 700898 [12] = assay type: cell-based
Procedure: as §2

[13] = test system: M. intracellulare 20-S-13; assay: Checkerboard synergy testing with EBO; assay type: cell-based; details: M. intracellulare 20-S-13, clarithromycin resistant
Procedure: Frozen stocks of the drugs were prepared at 5 or 2 mg/ml and frozen in aliquots at −20° C. On the day of the experiment the stocks were thawed and diluted to the appropriate concentration.
Stocks of isolates were prepared and frozen at −80° C. Fresh cultures of each isolate (1-2 weeks) were grown on either 7H10 agar plus 5% OADC or CAMH agar plus 5% OADC for use in each experiment.
(§3) The checkerboard methodology was used to test for synergy and antagonism using Middlebrook 7H9+5% OADC (Dubos et al. Am Rev Tuberc (1947) 56:334-45) as the microbiology growth media. The first antibiotic of the combination, EBO, was serially diluted along the x-axis, whereas the second antibiotic was diluted along the y- axis. Synergistic or antagonistic activity was determined using the sum of the fractional inhibitory concentration (EFIC) index. The FIC index is calculated as the sum of FIC A+FIC B, where FIC A is the MIC of drug A in the combination of drugs A and B divided by the MIC of drug A alone, plus the MIC of drug B in the combination of drugs A and B divided by the MIC of drug B alone. A combination of drugs is considered synergistic when the FIC is <0.5, additive when the FIC is >0.5 to 1, indifferent when the FIC is >1 to 2, and antagonistic when the FIC is >2 (EUCAST. Clin. Microbiol. Infect. (2000) 6: 503-508).

[14] = test system: NTM strains (5 MAC strains, 2 rapidly growing); assay: Checkerboard synergy testing with EBO, summary over strains; assay type: cell-based
Procedure: as §3

M. avium ATCC 700898 [15] = details: Sensititre SLOMYCO plate; cited from earlier work
[16] = 20S13, M. intracellulare 20-S-13, read-out: In Vitro Activity (MIC)
[17] = 20S13, read-out: In Vitro Activity (MIC)
[18] = Mycobacterium avium, ATCC700898

SMILES	MIC (M. abscessus ATCC 19977) [µg/mL]	MIC [1] [µg/mL]	MIC (M. avium 2285R) [µg/mL]	MIC (M. chimaera 20-S-05) [µg/mL]	MIC (M. avium ATCC 700858) [µg/mL]	MIC [3] [µg/mL]	MIC (M. avium ATCC 700898 [4]) [µg/mL]	MIC ([5]; Mycobacterium avium) [µg/mL]	MIC ([6]; Mycobacterium avium) [µg/mL]	MIC ([7]; Mycobacterium avium) [µg/mL]	MIC ([8]; Mycobacterium avium) [µg/mL]	MIC ([9]; Mycobacterium avium) [µg/mL]	MIC ([10]; Mycobacterium avium) [µg/mL]	MIC [2, 17] [µg/mL]	MIC (M. avium ATCC 700898 WT; [18]) [µg/mL]	further results
NCC[C@H](O)C(=O)N[C@@H]1C[C@H](N)[C@@H](O[C@H]2O[C@H](CN)[C@@H](O)[C@H](O)[C@H]2O)[C@H](O)[C@H]1O[C@H]1O[C@H](CO)[C@@H](O)[C@H](N)[C@H]1O [AMK, Amikacin]	64 (≈ 109 µM)	2 (≈ 3.42 µM)	8 (≈ 13.7 µM)	32 (≈ 54.6 µM)	16 (≈ 27.3 µM)	16 (≈ 27.3 µM)	32 (≈ 54.6 µM)	32 (≈ 54.6 µM)	32 (≈ 54.6 µM)	32 (≈ 54.6 µM)	32 (≈ 54.6 µM)	32 (≈ 54.6 µM)	32 (≈ 54.6 µM)	–	–	MIC [2, 16]: 20 µg/mL (≈ 34.2 µM)
COc1nc2ccc(Br)cc2cc1[C@@H](c1ccccc1)[C@@](O)(CCN(C)C)c1cccc2ccccc12 [BDQ, Bedaquiline]	0.5 (≈ 0.9 µM)	0.06 (≈ 0.108 µM)	0.03 (≈ 0.054 µM)	0.06 (≈ 0.108 µM)	0.06 (≈ 0.108 µM)	0.5 (≈ 0.9 µM)	–	0.06 (≈ 0.108 µM)	0.06 (≈ 0.108 µM)	0.12 (≈ 0.216 µM)	0.12 (≈ 0.216 µM)	0.06 (≈ 0.108 µM)	0.03 (≈ 0.054 µM)	> 0.5	0.06 (≈ 0.108 µM)	–
CC(C)/N=c1\cc2n(-c3ccc(Cl)cc3)c3ccccc3nc-2cc1Nc1ccc(Cl)cc1 [CFZ, clofazimine]	–	–	–	–	–	–	–	0.5 (≈ 1.06 µM)	0.25 (≈ 0.528 µM)	0.5 (≈ 1.06 µM)	0.25 (≈ 0.528 µM)	0.25 (≈ 0.528 µM)	0.5 (≈ 1.06 µM)	–	0.5 (≈ 1.06 µM)	–
CC[C@H]1OC(=O)[C@H](C)[C@@H](O[C@H]2C[C@@](C)(OC)[C@@H](O)[C@H](C)O2)[C@H](C)[C@@H](O[C@@H]2O[C@H](C)C[C@H](N(C)C)[C@H]2O)[C@](C)(OC)C[C@@H](C)C(=O)[C@H](C)[C@@H](O)[C@]1(C)O [CLR, Clarithromycin]	16 (≈ 21.4 µM)	1 (≈ 1.34 µM)	0.125 (≈ 0.167 µM)	4 (≈ 5.35 µM)	2 (≈ 2.67 µM)	2 (≈ 2.67 µM)	4 (≈ 5.35 µM)	2 (≈ 2.67 µM)	0.5 (≈ 0.668 µM)	0.5 (≈ 0.668 µM)	0.5 (≈ 0.668 µM)	–	1 (≈ 1.34 µM)	> 128	2 (≈ 2.67 µM)	–
NC[C@H]1OB(O)c2c(OCCCO)cccc21 [EBO, Epetraborole hydrochloride]	–	–	–	–	–	–	–	–	–	–	–	–	–	–	–	In Vitro Activity (MIC) (M. abscessus ATCC 19977): 0.06 µg/mL; In Vitro Activity (MIC) [1]: 0.06 µg/mL; In Vitro Activity (MIC) (M. avium 2285R): 0.5 µg/mL; In Vitro Activity (MIC) ([2]; M. intracellulare 20-S-13): 0.25 µg/mL; In Vitro Activity (MIC) (M. chimaera 20-S-05): 2 µg/mL; In Vitro Activity (MIC) (M. avium ATCC 700858): 2 µg/mL; In Vitro Activity (MIC) [3]: 0.5 µg/mL; Change of MIC value in EBO resistant mutants versus wild-type [11]: ≥ 128 fold; MIC (M. avium ATCC 700898 WT; WT parent strain): 0.5 µg/mL; Agar MIC (M. avium ATCC 700898 [4]): 8 µg/mL; MIC ([5]; EBO selected isolate 64-4A): >128 µg/mL; MIC ([6]; EBO selected isolate 16-3A): >128 µg/mL; MIC ([7]; EBO selected isolate 64-3A): >128 µg/mL; MIC ([8]; EBO selected isolate 32-8A): >128 µg/mL; MIC ([9]; EBO selected isolate 16-5A): 64 µg/mL; MIC ([10]; EBO selected isolate 32-5A): >128 µg/mL; Resistance Frequency (M. avium ATCC 700898 [12]; EBO selection concentration 16 mg/L): 1.58 × 10^−7; Resistance Frequency (M. avium ATCC 700898 [12]; EBO selection concentration 32 mg/L): 1.21 × 10^−8; Resistance Frequency (M. avium ATCC 700898 [12]; EBO selection concentration 64 mg/L): 8.49 × 10^−9; Spontaneous resistance frequency (M. avium ATCC 700898 [12]; selected on 2-8× agar MIC): 1.58×10^−7 to 8.48×10^−9
CC[C@@H](CO)NCCN[C@@H](CC)CO [EMB, Ethambutol]	32 (≈ 157 µM)	8 (≈ 39.2 µM)	16 (≈ 78.3 µM)	4 (≈ 19.6 µM)	8 (≈ 39.2 µM)	32 (≈ 157 µM)	8 (≈ 39.2 µM)	8 (≈ 39.2 µM)	4 (≈ 19.6 µM)	4 (≈ 19.6 µM)	8 (≈ 39.2 µM)	4 (≈ 19.6 µM)	4 (≈ 19.6 µM)	64 (≈ 313 µM)	4 (≈ 19.6 µM)	Interaction between ethambutol and EBO, in words [13]: indifference; Interaction with EBO over the 5 MAC strains tested, in words [14]: synergy was observed with 2 strains and additivity with an additional 2 strains
CO[C@H]1/C=C/O[C@@]2(C)Oc3c(C)c(O)c4c(c3C2=O)C2=NC3(CCN(CC(C)C)CC3)NC2=C(NC(=O)/C(C)=C\C=C\[C@H](C)[C@H](O)[C@@H](C)[C@@H](O)[C@@H](C)[C@H](OC(C)=O)[C@@H]1C)C4=O [RFB, Rifabutin]	32 (≈ 37.8 µM)	8 (≈ 9.44 µM)	0.125 (≈ 0.148 µM)	1 (≈ 1.18 µM)	0.25 (≈ 0.295 µM)	2 (≈ 2.36 µM)	0.25 (≈ 0.295 µM)	0.25 to 0.5 (≈ 0.295 to 0.59 µM)	0.06 (≈ 0.0708 µM)	0.06 (≈ 0.0708 µM)	0.125 (≈ 0.148 µM)	0.06 (≈ 0.0708 µM)	0.06 (≈ 0.0708 µM)	–	0.06 (≈ 0.0708 µM)	MIC [2, 16]: 0.06 µg/mL (≈ 0.0708 µM)
CO[C@H]1/C=C/O[C@@]2(C)Oc3c(C)c(O)c4c(O)c(c(/C=N/N5CCN(C)CC5)c(O)c4c3C2=O)NC(=O)/C(C)=C\C=C\[C@H](C)[C@H](O)[C@@H](C)[C@@H](O)[C@@H](C)[C@H](OC(C)=O)[C@@H]1C [rifampin, Rifampin]	–	–	–	–	–	–	–	–	–	–	–	–	–	–	–	MIC variance previously reported for this strain (M. avium ATCC 700898 [15]): 8 fold
